This series can be described thus: Elimination of jejunal piperacillin during parenteral piperacillin/tazobactam therapy, canine model. To be noted: i.v. 100 mg piperacillin and 12.5 mg tazobactam per kg; experiment 1; compared with ampicillin or amoxicillin. In kind it is in vivo, beagle dogs.

Procedure: Beagle dogs were treated with a combination of piperacillin and tazobactam without and with simultaneous beta-lactamase therapy. The experiments were performed essentially as those described in Examples 1 and 2, except that a single dose of the piperacillin/tazobactam combination contained 100 mg of piperacillin and 12.5 mg of tazobactam per kg of body weight, and the HPLC analysis method was elaborated to be suitable for analysis of piperacillin (the limit of quantification was 10 micrograms per gram of jejunal chyme).
Piperacillin values in experiment 1 represent jejunal piperacillin concentrations achieved after two separate administrations of piperacillin/tazobactam at a dosing interval of 6 hours without beta-lactamase treatment. Beagle dogs were treated with a piperacillin/tazobactam combination with concurrent beta-lactamase therapy in experiment 2.
The experiment was repeated except that the single dose of beta-lactamase pellets contained about 0.3 mg of active beta-lactamase per kg of body weight, and the single dose of the piperacillin/tazobactam combination contained 65.6 mg of piperacillin and 9.4 mg of tazobactam per kg of body weight.

Consider `CCN1CCN(C(=O)N[C@@H](C(=O)N[C@@H]2C(=O)N3[C@@H]2SC(C)(C)[C@@H]3C(=O)O)c2ccccc2)C(=O)C1=O` [piperacillin], for which the “biliary elimination of piperacillin without beta-lactamase” value is listed as “considerably higher than that of ampicillin or amoxicillin”.

For the origin of these results see patent US20090311234A1, “USE OF BETA-LACTAMASE” (priority 2006, published 2009).
